Assay results from patent publication US8202886B2, “Small molecule E2F inhibitor” (H. Lee Moffitt Cancer Center and Research Institute, Inc., priority 2008, dated 2012).
Like-named read-outs stand apart in the source and are kept apart here.

Columns and labels:
[1] = molecular target: T1, E2F4 (Homo sapiens, UniProt Q16254); test: Whole-membrane E2F4 western for cleavage products; format: cell-based; parameters: endogenous in cells; conditions: 40 uM
Target sequence in this assay (Q16254 whole entry): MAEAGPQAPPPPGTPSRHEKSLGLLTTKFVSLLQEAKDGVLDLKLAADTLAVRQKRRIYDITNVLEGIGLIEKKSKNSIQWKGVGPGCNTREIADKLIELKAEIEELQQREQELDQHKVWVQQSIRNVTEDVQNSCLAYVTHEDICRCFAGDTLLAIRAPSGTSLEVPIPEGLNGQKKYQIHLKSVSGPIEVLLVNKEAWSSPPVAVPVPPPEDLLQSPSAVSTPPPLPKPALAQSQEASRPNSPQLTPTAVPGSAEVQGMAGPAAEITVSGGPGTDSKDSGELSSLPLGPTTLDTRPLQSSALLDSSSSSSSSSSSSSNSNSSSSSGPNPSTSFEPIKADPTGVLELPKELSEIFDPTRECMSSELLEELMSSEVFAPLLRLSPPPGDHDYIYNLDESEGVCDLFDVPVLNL
Procedure: The indicated cell lines were treated with 40 micromolar the therapeutic compound and subjected to western blotting 24 hrs later. In this case, the entire lanes were subjected to western blot with an E2F4 antibody in order to detect potential immunoreactive truncation products.
For this experiment cells were treated with 40 uM the therapeutic compound and were subjected to western blotting. However, rather than cut the western membrane into three pieces (to probe simultaneously for three proteins of different sizes) the entire membrane was used to reveal smaller immunoreactive bands.

[2] = system: A375; test: Apo-BrdU TUNEL apoptosis assay, A375; format: cell-based, human; conditions: 40-μM, 24-hrs
Text: (§1) To determine if treatment with the therapeutic compound contributes to apoptosis, Cells were detached from culture plates by trypsin treatment, washed twice with PBS, and fixed in 70% ethanol. Fixed cells were washed twice with PBS and treated with RNase A and propidium iodide (PI). PI staining was examined using a Becton-Dickinson FACScan instrument and Cell Quest software. TUNEL assay for apoptosis utilized a Pharmingen APO-BRDU Kit. MTS (3-(4,5-dimethylthiazol-2-yl)-5-(3-carboxymethoxyphenyl)-2-(4-sulfophenyl)-2H-tetrazolium, inner salt) assays were conducted using a CellTiter 96® AQueous One Cell Proliferation Assay Kit (Promega).
(§2) A375, MDA-MB-231 (231), MCF-7 and human foreskin fibroblasts (HFF) cells were treated with 40-μM of the therapeutic compound for 24-hrs and subjected to a FACS based terminal deoxynucleotidyl transferase (TUNEL) assay (Apo-BrdU Kit from BD Pharmingen).

[3] = system: MDA-MB-231; test: Apo-BrdU TUNEL apoptosis assay, MDA-MB-231; format: cell-based, human; conditions: 40-μM, 24-hrs
Text: as §1, §2

[4] = system: H1299; test: Western blots of treated H1299 cells; format: cell-based
Procedure: In order to further examine the mechanism of action of the therapeutic compound four lung cancer cell lines were treated with various concentrations of drug and western blots performed on cell extracts after 24 hr.

[5] = system: A375 melanocytes; test: Three-dimensional skin model of A375 proliferation and invasion; format: cell-based, human; conditions: for activated caspase-3 positive cells (IHC): day 2, 5 or 8; for proliferation and invasion of melanocytes (S-100 IHC): day 12, 16 and 20
Procedure: Culture inserts of differentiated full-thickness 3D skin reconstruction model of A375 melanoma cells were purchased from MatTek (Ashland, Mass.). These were prepared by culturing mixed suspensions of normal human epidermal keratinocytes and A375 cells (1:10 ratio) on fibroblast contracted collagen gels and allowing differentiation for approximately one week in serum free media to form a 3D skin-like structure. These cultures were treated with 0, 40 or 80 μM 6474 and harvested after 0, 2, 5, 8, 12, 16 and 20 days.
In this model, the highly metastatic A375 melanocytes were mixed with normal human keratinocytes and seeded on fibroblast-contracted collagen gels. The mixed cells were then induced to differentiate in serum free media to form three-dimensional, highly differentiated, full thickness skin-like tissues. After seven days of differentiation the cells were then treated with 0 (DMSO carrier alone), 40 or 80 μM the therapeutic compound. The three-dimensional models were then cultured for 2, 5, 8, 12, 16 and 20 days. At the appointed time, 3D cultures were fixed in formalin, paraffin embedded, sectioned and either stained with H&E or processed for immunohistochemistry (1HC) using antibodies against S-100 to measure expression of a melanocyte marker, E2F4 to determine if it were down regulated as in 2D culture, activated caspase-3 to measure apoptosis and […] to measure the proliferative index.

[6] = system: MCF7 cells; test: RNase protection assay, MCF7; format: cell-based, human
Procedure: The indicated breast cancer lines were treated with 40 micromolar the therapeutic compound and subjected RNAse protection assay 24 hrs later using the indicated probes.
An RNase protection assay was performed to determine if downregulation of the Rb family members at the level of mRNA could account for the downregulation of the proteins. Two breast cancer cell lines were examined at 0, 3, 6, 9, 18 and 24 hr following the therapeutic compound treatment (FIG. 21).

[7] = system: 8226-dox40; test: MTS viability assay, 8226-dox40; format: cell-based; conditions: Homo sapiens
Procedure: Cells were collected 24 hours post drug exposure and extracts subjected to western blotting using antibodies to the indicated proteins. Cleavage of PARP indicates apoptosis.
To examine its effect on a range of commonly studied cell lines, the inventors utilized standard MTS assays to quantify cell viability following the therapeutic compound treatment. Cytotoxicity was determined using MTS assays, which were conducted using a CellTiter 96® AQueous One Cell Proliferation Assay Kit (Promega) following the published protocol. Cells in 0.1 ml volume were plated in triplicate into 96-well plates, 1×10^4 cells/well. the therapeutic compound was added and after 24 hours of incubation at 37° C., 20 μl of MTS dye was added to each well. Plates were read at 490 nm following 4 hrs MTS reaction time. The concentration of drug which produced a 50% inhibition of growth (IC50) was calculated from linear regression analysis of the linear portion of the growth curves.

[8] = system: lung cancer cell lines; test: CT Blue Viability Assay, drug combinations; format: cell-based; conditions: combination with taxol
Procedure: The indicated lung cancer cell lines were exposed to taxol, cisplatin, or gemacitabine alone, the therapeutic compound alone, or a combination as indicated. These experiments and analysis were performed in the Experimental Therapeutics Core using the CT Blue Viability Assay.

[9] = molecular target: T1, E2F4; test: E2F4 DNA-binding EMSA on whole cell extracts of treated A375 cells; format: cell-based; conditions: for effect on E2F4 DNA-binding activity: 9-hrs
Procedure: Whole cell extracts of treated cells were prepared and the DNA-binding activity of E2F4 measured by EMSA.
PhosphoImager EMSA signals from four independent experiments were quantified using ImageQuant and the results are graphed in FIG. 10B. The apparent IC50 (drug concentration required to reduce total E2F4 DNA-binding activity by 50% of untreated cells was calculated using the Statistical Analysis System (Proc Probit)).
To determine the activity of the therapeutic compound over time, A375 cells were treated with 40-μM of compound and examined at 0-, 3-, 6-, 9-, 12-, 18- and 24-hrs by EMSA and western (FIG. 11A).
Quantitative EMSA assays were performed in triplicate.
Target sequence in this assay (Q16254 2-413 limits assumed): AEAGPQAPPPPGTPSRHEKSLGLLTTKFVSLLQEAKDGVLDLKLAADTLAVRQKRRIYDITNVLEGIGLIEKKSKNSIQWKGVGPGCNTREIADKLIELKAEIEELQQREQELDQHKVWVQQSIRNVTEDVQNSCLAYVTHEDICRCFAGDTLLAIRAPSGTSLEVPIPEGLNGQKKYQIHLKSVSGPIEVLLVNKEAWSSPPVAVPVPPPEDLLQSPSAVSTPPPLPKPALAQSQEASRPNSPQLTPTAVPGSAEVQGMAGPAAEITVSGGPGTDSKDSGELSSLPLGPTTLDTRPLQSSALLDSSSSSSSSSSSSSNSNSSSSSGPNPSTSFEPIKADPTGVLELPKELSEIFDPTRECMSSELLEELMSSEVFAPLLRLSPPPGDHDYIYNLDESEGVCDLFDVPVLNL
Target sequence in this assay (Q14186 whole entry partner): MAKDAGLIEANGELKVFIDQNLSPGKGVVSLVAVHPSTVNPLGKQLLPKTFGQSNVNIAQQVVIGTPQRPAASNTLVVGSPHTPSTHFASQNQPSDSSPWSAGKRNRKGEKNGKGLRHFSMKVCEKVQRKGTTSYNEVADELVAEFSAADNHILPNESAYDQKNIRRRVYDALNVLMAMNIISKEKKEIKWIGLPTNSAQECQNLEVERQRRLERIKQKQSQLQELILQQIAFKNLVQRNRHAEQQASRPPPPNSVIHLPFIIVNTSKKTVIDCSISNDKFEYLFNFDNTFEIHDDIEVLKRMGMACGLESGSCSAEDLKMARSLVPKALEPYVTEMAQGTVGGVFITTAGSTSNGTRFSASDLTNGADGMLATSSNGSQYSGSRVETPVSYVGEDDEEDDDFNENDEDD

[10] = system: WT MEFS; test: Apoptosis (ApoBrdU, PARP western) in WT MEFs; format: cell-based, mouse
Procedure: FIG. 12A: MEFS derived from sibling WT and E2F4^−/− mice were treated for 24-hrs with the indicated doses of HLM006474. Apoptosis was determined using ApoBrdU (BD Pharmingen).
FIG. 12B: MEFS derived from sibling WT and E2F4^−/− mice were treated as in A subjected to western blotting using a PARP antibody or E2F4 antibody. PARP cleavage (as indicated by the arrow) is an independent measure of apoptosis.
To determine if the effect of the therapeutic compound is dependent upon E2F4, the inventors compared the therapeutic compound response of immortalized MEFs derived from E2F4-deficient mice with MEFS derived from wildtype siblings.

[11] = 40 μM, listed as the therapeutic compound

CCOc1ccc(C(Nc2ccccn2)c2ccc3ccc(C)nc3c2O)cc1C (stereo not drawn) [HLM006474]
E2F4 immunoreactive truncation product [1]: appearance of a 40 kD band
apoptosis (TUNEL) [2]: dramatic induction of apoptosis
apoptosis (TUNEL) [3]: dramatic induction of apoptosis
Bcl-2 (western) ([4]; H1299, 40-μM): significant downregulation
Mcl-1 (western) ([4]; H1299, 40-μM): no change
sensitivity (downregulation of E2F1 and E2F4, PARP cleavage) ([4]; H1299, various concentrations, 24 hr): very sensitive
effects on the other cells (fibroblasts and keratinocytes) of the 3D tissue [5]: no obvious deleterious effects
E2F4 levels (IHC) ([5]; 40 μM): clearly reduced
Ki-67 staining ([5]; 40 μM, day 2, 5 and 8): decrease in the number of proliferative cells
activated caspase-3 positive cells (IHC) ([5]; 40 μM): no detectable increase in apoptotic cells
activated caspase-3 positive cells (IHC) [5, 11]: no significant difference
proliferation and invasion of melanocytes (S-100 IHC) ([5]; 40 μM): very rare
proliferation and invasion of melanocytes (S-100 IHC) [5, 11]: significantly inhibited the proliferation and subsequent invasion
melanocyte proliferation (H&E) ([5]; 80 μM): essentially no melanocyte proliferation
Rb at the mRNA level ([6]; MCF7): no significant change
p21 mRNA ([6]; MCF7): upregulated
mRNA for p107 ([6]; MCF7, 0-24 hr): repressed
IC50 [7]: 31 ± 4 µM
synergy with taxol [8]: synergizes significantly
effect on E2F4 DNA-binding activity ([9]; 10 and 20-μM): limited effect
reduction of E2F4 activity ([9]; 40-μM drug, expected from dose response): 50-75%
effect on E2F4 DNA-binding activity ([9]; 40-μM): inhibition is clearly apparent
IC50 ([9]; A375 cells treated 9-hrs, EMSA, Proc Probit, read-out: IC50 (drug concentration required to reduce total E2F4 DNA-binding activity by 50% of untreated cells)): 29.8 µM
IC50 ([9]; as restated for the NCI60 screen, read-out: known IC50): 30 µM
time at which inhibition of E2F4 DNA-binding activity became apparent ([9]; single 40-μM dose): 9 h
level of apoptosis in WT cells as compared to E2F4-deficient cells ([10]; 24-hrs, ApoBrdU): two-fold increase
concentration at which PARP cleavage is evident ([10]; E2F4 proficient MEFs): 20 µM
